Test results taken from publication PMC11845477, “Exploring the principles behind antibiotics with limited resistance” (Nature Communications, 2025).

Columns and labels:
[1] = test system: K. pneumoniae ATCC 10031 (SEN) and K. pneumoniae ATCC 700603 (MDR); experiment: microbe, parasite or virus in culture; type: cell-based, Klebsiella pneumoniae; conditions: for MIC of ancestor: ancestor strain; for MIC: Klebsiella pneumoniae, across three biological replicates
Description: (§1) This study focused on multiple bacterial strains, as follows. For the FoR and ALE experiments, 2 strains per species were chosen: E. coli ATCC 25922, K. pneumoniae ATCC 10031, A. baumannii ATCC 17978, and P. aeruginosa ATCC BAA-3107 as sensitive (SEN) strains, and E. coli NCTC13846, K. pneumoniae ATCC 700603, A. baumannii ATCC BAA-1605 and P. aeruginosa LESB58 as multi-drug resistant (MDR) strains. Functional metagenomic screens were performed with E. coli ATCC 25922 and K. pneumoniae ATCC 10031 strains. To determine the dose-kill properties of the different antibiotics, an E. coli strain (ATCC 25922) expressing a yellow fluorescent protein (pZS2R, YFP, CHL^R) and a red fluorescent protein (pZS2R, mCherry, CHL^R) was used.
(§2) Unless otherwise indicated, cation-adjusted Mueller-Hinton Broth 2 (MHB, Millipore) medium was used throughout the study, except for SCH79797 (SCH).
(§3) A robotic liquid handling system was used to automatically prepare a 11 to 16-step serial dilution in 384-well microtiter plates (Greiner). A final concentration of 5 × 10^5 bacterial cells per mL were inoculated into each well containing 60 µL MHB medium. Bacterial cultures were incubated at 37 °C with continuous shaking (Infors shaker, 900 rpm with 3 mm throw) for 18 hours (2 replicates from each). Cell growth was monitored by measuring the optical density (OD600 values, using Biotek Synergy microplate reader). MIC was defined as the antibiotic concentration of complete growth inhibition (i.e., OD600 < 0.05). Relative MIC was calculated as follows:1 relativeMIC=MICevolved/MICancestor

[2] = test system: A. baumannii ATCC 17978 (SEN) and A. baumannii ATCC BAA-1605 (MDR); experiment: microbe, parasite or virus in culture; type: cell-based, Acinetobacter baumannii; conditions: for MIC of ancestor: ancestor strain; for MIC: Acinetobacter baumannii, across three biological replicates
Description: as §1, §2, §3

[3] = test system: P. aeruginosa ATCC BAA-3107 (SEN) and P. aeruginosa LESB58 (MDR); experiment: microbe, parasite or virus in culture; type: cell-based, Pseudomonas aeruginosa; conditions: for MIC of ancestor: ancestor strain; for MIC: Pseudomonas aeruginosa, across three biological replicates
Description: as §1, §2, §3

[4] = test system: K. pneumoniae ATCC 10031 (SEN) and K. pneumoniae ATCC 700603 (MDR); experiment: Adaptive laboratory evolution (ALE), relative MIC of evolved lines; type: cell-based, Klebsiella pneumoniae
Text: Using the same set of bacterial strains, we initiated adaptive laboratory evolution with the aim to maximize the level of antibiotic resistance in the populations achieved during a longer, but fixed time period.
An established protocol for adaptive laboratory evolution[46],[73] was followed to propagate populations with the highest resistance levels. Starting with an antibiotic concentration that caused approximately 50% growth inhibition, ten parallel populations for each antibiotic-ancestor strain combination were grown for 72 hours at 37 °C with continuous shaking (300 RPM). MHB broth medium was used unless stated otherwise. After each incubation, 20 µl of each culture was transferred to four new wells containing fresh medium with increasing antibiotic concentrations (0.5×, 1×, 1.5×, and 2.5× the previous concentration) in a chessboard layout to monitor potential cross-contamination. Growth was monitored by measuring OD600 using a Biotek Synergy 2 microplate reader, and only populations grown in the highest drug concentration with an OD600 > 0.2 were transferred further.
as §3, with “relativeMIC=MICevolved/MICancestor […]” for “relativeMIC=MICevolved/MICancestor”
Supplementary Figure 4. Resistance levels following adaptive laboratory evolution across bacterial strains. The level of resistance was measured as the fold change in relative MIC between evolved and ancestral strains after ~60 days of adaptive laboratory evolution. Data are grouped by bacterial strain (A. baumannii (AB), E. coli (EC), K. pneumoniae (KP), and P. aeruginosa (PA)) and categorized as either multidrug-resistant (MDR) or sensitive (SEN). Each data point represents a laboratory evolved line, and boxplots show the median, first and third quartiles, with whiskers indicating the 5th and 95th percentiles.
Statistical analysis was performed using two-sided Dunn’s post-hoc test with Benjamini-Hochberg correction for multiple comparisons (****/ ***/ **/ * indicates p < 0.0001/ 0.001/ 0.01/ 0.05). For detailed information on antibiotic and bacterial species, see Supplementary Table 1. For mode of action groups, refer to Table 1. Source data are provided as a Source Data file.

[5] = Klebsiella pneumoniae ATCC 10031 (KP-SEN)
[6] = Klebsiella pneumoniae ATCC 700603 (KP-MDR)
[7] = Acinetobacter baumannii ATCC 17978 (AB-SEN)

Nc1nc(-n2cc(C(=O)O)c(=O)c3cc(F)c(N4CC(O)C4)c(Cl)c32)c(F)cc1F [Delafloxacin]
MIC of ancestor [1, 5]: 0.00195 µg/mL | MIC of ancestor ([1]; Klebsiella pneumoniae ATCC 10031 (KP-SEN), sheet fig 2a): 0.00195 µg/mL | MIC of ancestor [1, 6]: 1 µg/mL | MIC of ancestor ([1]; Klebsiella pneumoniae ATCC 700603 (KP-MDR), sheet fig 2a): 1 µg/mL | MIC [1, 5]: 0.00195 µg/mL | MIC [1, 6]: 1 µg/mL | MIC of ancestor [2, 7]: 0.0625 µg/mL | MIC of ancestor ([2]; Acinetobacter baumannii ATCC 17978 (AB-SEN), sheet fig 2a): 0.0625 µg/mL | MIC [2, 7]: 0.0625 µg/mL | MIC ([2]; Acinetobacter baumannii ATCC BAA-1605 (AB-MDR)): 8 µg/mL | MIC of ancestor ([3]; P. aeruginosa LESB 58 (PA-MDR), sheet fig 2a): 2 µg/mL | MIC of ancestor ([3]; Pseudomonas aeruginosa ATCC BAA 3107 (PA-SEN)): 0.0156 µg/mL | MIC of ancestor ([3]; Pseudomonas aeruginosa LESB 58 (PA-MDR)): 2 µg/mL | MIC ([3]; ATCCBAA3107, Pseudomonas aeruginosa ATCC BAA-3107 (PA-SEN)): < 0.0312 µg/mL | MIC ([3]; ATCCBAA3107, Pseudomonas aeruginosa LESB 58 (PA-MDR)): 2 µg/mL | Relative MIC ([4]; KP-MDR (ATCC 700603), evolved line 2, MIC of evolved line / MIC of ancestor): 64 | Relative MIC ([4]; KP-MDR (ATCC 700603), evolved line 3, MIC of evolved line / MIC of ancestor): 16 | Relative MIC ([4]; KP-MDR (ATCC 700603), evolved line 4, MIC of evolved line / MIC of ancestor): 32 | Relative MIC ([4]; KP-MDR (ATCC 700603), evolved line 5, MIC of evolved line / MIC of ancestor): 32 | Relative MIC ([4]; KP-MDR (ATCC 700603), evolved line 6, MIC of evolved line / MIC of ancestor): 128 | Relative MIC ([4]; KP-MDR (ATCC 700603), evolved line 7, MIC of evolved line / MIC of ancestor): 128 | Relative MIC ([4]; KP-MDR (ATCC 700603), evolved line 8, MIC of evolved line / MIC of ancestor): 64 | Relative MIC ([4]; KP-MDR (ATCC 700603), evolved line 9, MIC of evolved line / MIC of ancestor): 64 | Relative MIC ([4]; KP-MDR (ATCC 700603), evolved line 10, MIC of evolved line / MIC of ancestor): 64 | Relative MIC (log10) ([4]; KP-MDR (Klebsiella pneumoniae ATCC 700603), evolved line 2 adapted to the named antibiotic): 1.806 | Relative MIC (log10) ([4]; KP-MDR (Klebsiella pneumoniae ATCC 700603), evolved line 6 adapted to the named antibiotic): 2.107 | Relative MIC (log10) ([4]; KP-MDR (Klebsiella pneumoniae ATCC 700603), evolved line 7 adapted to the named antibiotic): 2.107 | Relative MIC (log10) ([4]; KP-MDR (Klebsiella pneumoniae ATCC 700603), evolved line 8 adapted to the named antibiotic): 1.806 | Relative MIC (log10) ([4]; KP-MDR (Klebsiella pneumoniae ATCC 700603), evolved line 10 adapted to the named antibiotic): 1.806 | Relative MIC ([4]; KP-SEN (ATCC 10031), evolved line 1, MIC of evolved line / MIC of ancestor): 16384 | Relative MIC ([4]; KP-SEN (ATCC 10031), evolved line 2, MIC of evolved line / MIC of ancestor): 8192 | Relative MIC ([4]; KP-SEN (ATCC 10031), evolved line 3, MIC of evolved line / MIC of ancestor): 16384 | Relative MIC ([4]; KP-SEN (ATCC 10031), evolved line 4, MIC of evolved line / MIC of ancestor): 8192 | Relative MIC ([4]; KP-SEN (ATCC 10031), evolved line 5, MIC of evolved line / MIC of ancestor): 16384 | Relative MIC ([4]; KP-SEN (ATCC 10031), evolved line 6, MIC of evolved line / MIC of ancestor): 16384 | Relative MIC ([4]; KP-SEN (ATCC 10031), evolved line 7, MIC of evolved line / MIC of ancestor): 8192 | Relative MIC ([4]; KP-SEN (ATCC 10031), evolved line 8, MIC of evolved line / MIC of ancestor): 65536 | Relative MIC ([4]; KP-SEN (ATCC 10031), evolved line 9, MIC of evolved line / MIC of ancestor): 65536 | Relative MIC (log10) ([4]; KP-SEN (Klebsiella pneumoniae ATCC 10031), evolved line 1 adapted to the named antibiotic): 4.214 | Relative MIC (log10) ([4]; KP-SEN (Klebsiella pneumoniae ATCC 10031), evolved line 3 adapted to the named antibiotic): 4.214 | Relative MIC (log10) ([4]; KP-SEN (Klebsiella pneumoniae ATCC 10031), evolved line 7 adapted to the named antibiotic): 3.913 | Relative MIC (log10) ([4]; KP-SEN (Klebsiella pneumoniae ATCC 10031), evolved line 8 adapted to the named antibiotic): 4.816 | Relative MIC (log10) ([4]; KP-SEN (Klebsiella pneumoniae ATCC 10031), evolved line 9 adapted to the named antibiotic): 4.816 | Relative MIC ([4]; Klebsiella pneumoniae ATCC 10031 (KP-SEN), evolved line 1): 16384 | Relative MIC ([4]; Klebsiella pneumoniae ATCC 10031 (KP-SEN), evolved line 2): 8192 | Relative MIC ([4]; Klebsiella pneumoniae ATCC 10031 (KP-SEN), evolved line 3): 16384 | Relative MIC ([4]; Klebsiella pneumoniae ATCC 10031 (KP-SEN), evolved line 4): 8192 | Relative MIC ([4]; Klebsiella pneumoniae ATCC 10031 (KP-SEN), evolved line 5): 16384 | Relative MIC ([4]; Klebsiella pneumoniae ATCC 10031 (KP-SEN), evolved line 6): 16384 | Relative MIC ([4]; Klebsiella pneumoniae ATCC 10031 (KP-SEN), evolved line 7): 8192 | Relative MIC ([4]; Klebsiella pneumoniae ATCC 10031 (KP-SEN), evolved line 8): 65536 | Relative MIC ([4]; Klebsiella pneumoniae ATCC 10031 (KP-SEN), evolved line 9): 65536 | Relative MIC ([4]; Klebsiella pneumoniae ATCC 700603 (KP-MDR), evolved line 2): 64 | Relative MIC ([4]; Klebsiella pneumoniae ATCC 700603 (KP-MDR), evolved line 3): 16 | Relative MIC ([4]; Klebsiella pneumoniae ATCC 700603 (KP-MDR), evolved line 4): 32 | Relative MIC ([4]; Klebsiella pneumoniae ATCC 700603 (KP-MDR), evolved line 5): 32 | Relative MIC ([4]; Klebsiella pneumoniae ATCC 700603 (KP-MDR), evolved line 6): 128 | Relative MIC ([4]; Klebsiella pneumoniae ATCC 700603 (KP-MDR), evolved line 7): 128 | Relative MIC ([4]; Klebsiella pneumoniae ATCC 700603 (KP-MDR), evolved line 8): 64 | Relative MIC ([4]; Klebsiella pneumoniae ATCC 700603 (KP-MDR), evolved line 9): 64 | Relative MIC ([4]; Klebsiella pneumoniae ATCC 700603 (KP-MDR), evolved line 10): 64
